This passage reports AC50 results from ChEMBL document CHEMBL5291721, “A preclinical secondary pharmacology resource illuminates target-adverse drug reaction associations of marketed drugs” (Nat Commun, 2023).

For one test, the target named is Acetylcholinesterase (Homo sapiens, UniProt P22303). Type of test: functional.
The target in test [1] is T1, Alpha-1A adrenergic receptor (Homo sapiens, UniProt P35348).
T1 sequence (P35348 whole entry): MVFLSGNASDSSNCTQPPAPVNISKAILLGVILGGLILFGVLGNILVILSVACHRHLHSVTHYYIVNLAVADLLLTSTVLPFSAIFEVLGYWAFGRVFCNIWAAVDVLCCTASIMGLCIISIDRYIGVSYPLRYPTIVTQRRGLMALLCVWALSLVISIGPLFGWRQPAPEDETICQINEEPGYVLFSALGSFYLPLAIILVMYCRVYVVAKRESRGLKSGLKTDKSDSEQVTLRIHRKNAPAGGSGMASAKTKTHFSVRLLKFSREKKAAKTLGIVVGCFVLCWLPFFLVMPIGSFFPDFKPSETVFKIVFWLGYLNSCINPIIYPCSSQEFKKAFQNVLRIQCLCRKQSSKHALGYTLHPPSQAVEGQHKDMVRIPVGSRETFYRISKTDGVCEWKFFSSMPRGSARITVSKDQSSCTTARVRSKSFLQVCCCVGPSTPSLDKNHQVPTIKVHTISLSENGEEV
Type of test: functional, cell-based.

The next test concerns the target T2, Androgen receptor (Homo sapiens, UniProt P10275).
T2 sequence (P10275 whole entry): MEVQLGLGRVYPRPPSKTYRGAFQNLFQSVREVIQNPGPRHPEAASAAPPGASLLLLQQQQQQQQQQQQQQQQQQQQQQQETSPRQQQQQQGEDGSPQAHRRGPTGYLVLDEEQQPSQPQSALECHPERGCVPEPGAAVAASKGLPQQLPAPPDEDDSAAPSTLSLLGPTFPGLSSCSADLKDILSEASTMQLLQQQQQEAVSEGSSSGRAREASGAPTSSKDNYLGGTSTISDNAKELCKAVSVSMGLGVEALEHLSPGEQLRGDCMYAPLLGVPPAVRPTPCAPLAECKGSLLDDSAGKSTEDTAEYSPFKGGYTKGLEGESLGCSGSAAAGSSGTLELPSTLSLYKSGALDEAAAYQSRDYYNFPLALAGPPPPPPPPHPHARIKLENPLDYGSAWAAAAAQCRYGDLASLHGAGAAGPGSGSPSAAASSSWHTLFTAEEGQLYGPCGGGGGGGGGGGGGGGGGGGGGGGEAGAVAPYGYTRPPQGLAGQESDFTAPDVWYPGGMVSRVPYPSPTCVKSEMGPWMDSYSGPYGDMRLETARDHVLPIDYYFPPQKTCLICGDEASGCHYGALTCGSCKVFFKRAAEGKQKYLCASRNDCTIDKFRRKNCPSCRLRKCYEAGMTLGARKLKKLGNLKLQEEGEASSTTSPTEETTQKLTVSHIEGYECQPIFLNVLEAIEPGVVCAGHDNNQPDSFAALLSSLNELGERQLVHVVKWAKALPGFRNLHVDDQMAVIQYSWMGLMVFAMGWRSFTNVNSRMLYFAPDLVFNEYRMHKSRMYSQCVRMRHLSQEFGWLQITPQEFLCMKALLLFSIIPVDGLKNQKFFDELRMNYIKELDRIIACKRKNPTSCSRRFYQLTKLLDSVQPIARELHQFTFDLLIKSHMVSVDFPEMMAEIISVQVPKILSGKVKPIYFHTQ

In test [2] the target is T3, 5-hydroxytryptamine receptor 1A (Homo sapiens, UniProt P08908).
T3 sequence (P08908 whole entry): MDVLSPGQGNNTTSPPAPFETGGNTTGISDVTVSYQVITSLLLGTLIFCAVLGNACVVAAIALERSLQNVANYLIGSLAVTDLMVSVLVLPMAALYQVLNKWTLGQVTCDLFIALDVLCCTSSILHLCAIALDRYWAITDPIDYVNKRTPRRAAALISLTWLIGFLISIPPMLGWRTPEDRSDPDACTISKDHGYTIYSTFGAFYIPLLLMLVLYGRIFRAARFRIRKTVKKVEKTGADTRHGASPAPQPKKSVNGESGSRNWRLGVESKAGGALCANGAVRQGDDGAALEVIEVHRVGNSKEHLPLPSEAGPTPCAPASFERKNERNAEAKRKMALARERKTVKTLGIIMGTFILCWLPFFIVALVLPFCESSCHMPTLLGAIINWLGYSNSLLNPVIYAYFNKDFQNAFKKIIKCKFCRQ

Test [3] addresses T4, 5-hydroxytryptamine receptor 2B (Homo sapiens, UniProt P41595). The format is functional, cell-based.
Test [4] deals with Vascular endothelial growth factor receptor 2 (Homo sapiens, UniProt P35968). Type of test: functional.
Chain of Vascular endothelial growth factor receptor 2 (P35968 whole entry): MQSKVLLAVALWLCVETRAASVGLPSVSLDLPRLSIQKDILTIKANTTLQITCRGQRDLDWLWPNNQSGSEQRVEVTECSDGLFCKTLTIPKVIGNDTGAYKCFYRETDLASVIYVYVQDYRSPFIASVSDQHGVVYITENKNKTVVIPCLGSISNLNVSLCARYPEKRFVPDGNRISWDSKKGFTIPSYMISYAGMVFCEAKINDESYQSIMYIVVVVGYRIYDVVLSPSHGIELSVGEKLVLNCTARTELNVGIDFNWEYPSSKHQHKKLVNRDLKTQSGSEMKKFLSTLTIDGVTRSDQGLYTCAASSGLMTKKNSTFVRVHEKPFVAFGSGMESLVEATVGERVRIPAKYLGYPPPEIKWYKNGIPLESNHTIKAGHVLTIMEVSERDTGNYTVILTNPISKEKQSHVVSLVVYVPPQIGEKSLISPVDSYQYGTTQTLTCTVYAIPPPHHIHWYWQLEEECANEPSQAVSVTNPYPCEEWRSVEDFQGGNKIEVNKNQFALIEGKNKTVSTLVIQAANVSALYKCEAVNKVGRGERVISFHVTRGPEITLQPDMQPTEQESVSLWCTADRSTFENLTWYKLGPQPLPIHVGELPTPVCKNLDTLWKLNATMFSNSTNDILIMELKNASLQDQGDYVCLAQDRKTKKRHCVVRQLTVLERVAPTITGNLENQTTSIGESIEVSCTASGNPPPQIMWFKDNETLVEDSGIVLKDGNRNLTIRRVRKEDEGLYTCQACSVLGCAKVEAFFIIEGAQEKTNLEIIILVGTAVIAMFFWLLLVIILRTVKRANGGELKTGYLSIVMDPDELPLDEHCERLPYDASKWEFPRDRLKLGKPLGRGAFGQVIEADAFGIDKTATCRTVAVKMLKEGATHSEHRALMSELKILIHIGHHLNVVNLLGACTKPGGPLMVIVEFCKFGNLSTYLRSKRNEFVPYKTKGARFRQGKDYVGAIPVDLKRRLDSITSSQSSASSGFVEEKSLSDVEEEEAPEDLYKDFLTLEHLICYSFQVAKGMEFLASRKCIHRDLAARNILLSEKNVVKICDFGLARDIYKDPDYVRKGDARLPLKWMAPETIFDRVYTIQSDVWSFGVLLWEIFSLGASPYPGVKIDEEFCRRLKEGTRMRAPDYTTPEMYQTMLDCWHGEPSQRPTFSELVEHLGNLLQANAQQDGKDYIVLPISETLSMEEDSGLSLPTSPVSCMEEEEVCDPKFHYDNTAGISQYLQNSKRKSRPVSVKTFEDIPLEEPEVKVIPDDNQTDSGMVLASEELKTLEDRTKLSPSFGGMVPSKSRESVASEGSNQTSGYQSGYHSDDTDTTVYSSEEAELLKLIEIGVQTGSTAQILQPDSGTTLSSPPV
The next test addresses Mu-type opioid receptor (Homo sapiens, UniProt P35372).
Test [5] has as its target Sodium-dependent dopamine transporter (Homo sapiens, UniProt Q01959).
The target in test [6] is T4, 5-hydroxytryptamine receptor 2B. The format is functional, cell-based. The source holds these as a separate data set.
For a further test, the target named is Melanocortin receptor 3 (Homo sapiens, UniProt P41968).
Test [7] concerns the target 3',5'-cyclic-AMP phosphodiesterase 4D (Homo sapiens, UniProt Q08499). Type of test: functional.
In test [8] the target is cGMP-inhibited 3',5'-cyclic phosphodiesterase 3A (Homo sapiens, UniProt Q14432). The format is functional.
Chain of cGMP-inhibited 3',5'-cyclic phosphodiesterase 3A (Q14432 whole entry): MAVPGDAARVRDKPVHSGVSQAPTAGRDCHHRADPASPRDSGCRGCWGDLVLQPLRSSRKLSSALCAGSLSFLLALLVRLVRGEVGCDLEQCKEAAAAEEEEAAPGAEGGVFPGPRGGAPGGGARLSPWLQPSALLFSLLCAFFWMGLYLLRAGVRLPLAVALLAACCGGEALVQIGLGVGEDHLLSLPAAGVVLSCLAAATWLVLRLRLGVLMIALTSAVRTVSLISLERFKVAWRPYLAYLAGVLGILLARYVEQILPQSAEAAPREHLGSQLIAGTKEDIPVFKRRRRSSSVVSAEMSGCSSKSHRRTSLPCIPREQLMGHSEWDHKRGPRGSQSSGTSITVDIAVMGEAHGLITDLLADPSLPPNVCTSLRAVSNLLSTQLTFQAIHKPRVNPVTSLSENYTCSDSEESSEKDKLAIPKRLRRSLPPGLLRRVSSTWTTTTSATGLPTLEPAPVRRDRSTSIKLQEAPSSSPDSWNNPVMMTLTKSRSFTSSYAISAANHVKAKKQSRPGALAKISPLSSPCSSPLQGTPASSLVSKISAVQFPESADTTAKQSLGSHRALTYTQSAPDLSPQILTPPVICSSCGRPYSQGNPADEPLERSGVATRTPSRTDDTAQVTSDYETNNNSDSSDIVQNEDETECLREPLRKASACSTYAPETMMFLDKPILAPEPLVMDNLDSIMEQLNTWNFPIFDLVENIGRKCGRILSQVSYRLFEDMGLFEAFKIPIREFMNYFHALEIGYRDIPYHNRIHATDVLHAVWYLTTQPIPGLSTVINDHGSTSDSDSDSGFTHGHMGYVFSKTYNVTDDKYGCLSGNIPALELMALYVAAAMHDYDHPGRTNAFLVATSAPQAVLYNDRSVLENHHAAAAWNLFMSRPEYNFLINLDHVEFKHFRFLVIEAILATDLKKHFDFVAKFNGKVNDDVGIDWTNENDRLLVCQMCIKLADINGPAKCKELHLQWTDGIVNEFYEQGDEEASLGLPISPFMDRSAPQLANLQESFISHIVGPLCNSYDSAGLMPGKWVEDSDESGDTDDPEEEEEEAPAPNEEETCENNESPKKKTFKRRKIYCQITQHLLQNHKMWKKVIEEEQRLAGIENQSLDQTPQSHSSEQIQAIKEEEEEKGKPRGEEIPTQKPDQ
Test [9] deals with T5, Alpha-2A adrenergic receptor (Homo sapiens, UniProt P08913).
T5 sequence (P08913 whole entry): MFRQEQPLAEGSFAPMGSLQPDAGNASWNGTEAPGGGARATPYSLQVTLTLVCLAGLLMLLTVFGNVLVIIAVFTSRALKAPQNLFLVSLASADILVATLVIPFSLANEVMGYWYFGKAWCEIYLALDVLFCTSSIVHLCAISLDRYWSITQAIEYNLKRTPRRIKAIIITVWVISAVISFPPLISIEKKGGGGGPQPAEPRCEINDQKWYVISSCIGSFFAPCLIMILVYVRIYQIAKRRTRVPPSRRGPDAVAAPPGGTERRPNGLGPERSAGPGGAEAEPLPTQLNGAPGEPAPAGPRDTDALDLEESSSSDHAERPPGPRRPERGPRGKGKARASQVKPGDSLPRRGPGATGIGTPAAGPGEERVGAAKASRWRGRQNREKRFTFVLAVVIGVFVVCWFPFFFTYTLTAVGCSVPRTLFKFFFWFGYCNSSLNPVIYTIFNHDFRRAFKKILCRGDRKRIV
Type of test: functional, cell-based.

In test [10] the target is Gamma-aminobutyric acid receptor subunit alpha-1 (Rattus norvegicus, UniProt P62813).
Chain of Gamma-aminobutyric acid receptor subunit alpha-1 (P62813 whole entry): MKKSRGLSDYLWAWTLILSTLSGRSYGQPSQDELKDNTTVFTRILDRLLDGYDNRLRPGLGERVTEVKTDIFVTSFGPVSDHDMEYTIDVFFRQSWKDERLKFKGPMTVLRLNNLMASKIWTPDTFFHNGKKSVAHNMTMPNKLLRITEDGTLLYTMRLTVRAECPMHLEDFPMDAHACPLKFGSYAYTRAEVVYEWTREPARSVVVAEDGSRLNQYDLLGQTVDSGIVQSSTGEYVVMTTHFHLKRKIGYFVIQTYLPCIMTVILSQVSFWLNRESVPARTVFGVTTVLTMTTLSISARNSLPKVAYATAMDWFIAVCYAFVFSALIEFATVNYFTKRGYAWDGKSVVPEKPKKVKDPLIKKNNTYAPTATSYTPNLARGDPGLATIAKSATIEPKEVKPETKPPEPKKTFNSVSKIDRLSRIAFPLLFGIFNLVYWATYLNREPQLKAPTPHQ

Structures are written as SMILES. Bounds are passed on as bounds.
Note: assay procedure not described here.

T4 sequence (P41595 whole entry): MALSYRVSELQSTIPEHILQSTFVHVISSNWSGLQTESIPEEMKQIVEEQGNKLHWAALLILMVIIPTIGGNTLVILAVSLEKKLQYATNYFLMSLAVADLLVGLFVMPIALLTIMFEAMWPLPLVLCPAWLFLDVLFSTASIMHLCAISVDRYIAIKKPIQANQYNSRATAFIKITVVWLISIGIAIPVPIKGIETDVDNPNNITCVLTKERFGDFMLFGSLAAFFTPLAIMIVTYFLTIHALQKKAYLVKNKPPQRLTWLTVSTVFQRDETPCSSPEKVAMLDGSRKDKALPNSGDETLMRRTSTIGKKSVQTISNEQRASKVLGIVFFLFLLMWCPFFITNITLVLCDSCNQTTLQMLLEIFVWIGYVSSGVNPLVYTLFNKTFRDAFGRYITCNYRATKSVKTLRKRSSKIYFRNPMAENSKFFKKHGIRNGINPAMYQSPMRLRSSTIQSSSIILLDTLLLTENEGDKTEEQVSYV
Chain of Acetylcholinesterase (P22303 whole entry): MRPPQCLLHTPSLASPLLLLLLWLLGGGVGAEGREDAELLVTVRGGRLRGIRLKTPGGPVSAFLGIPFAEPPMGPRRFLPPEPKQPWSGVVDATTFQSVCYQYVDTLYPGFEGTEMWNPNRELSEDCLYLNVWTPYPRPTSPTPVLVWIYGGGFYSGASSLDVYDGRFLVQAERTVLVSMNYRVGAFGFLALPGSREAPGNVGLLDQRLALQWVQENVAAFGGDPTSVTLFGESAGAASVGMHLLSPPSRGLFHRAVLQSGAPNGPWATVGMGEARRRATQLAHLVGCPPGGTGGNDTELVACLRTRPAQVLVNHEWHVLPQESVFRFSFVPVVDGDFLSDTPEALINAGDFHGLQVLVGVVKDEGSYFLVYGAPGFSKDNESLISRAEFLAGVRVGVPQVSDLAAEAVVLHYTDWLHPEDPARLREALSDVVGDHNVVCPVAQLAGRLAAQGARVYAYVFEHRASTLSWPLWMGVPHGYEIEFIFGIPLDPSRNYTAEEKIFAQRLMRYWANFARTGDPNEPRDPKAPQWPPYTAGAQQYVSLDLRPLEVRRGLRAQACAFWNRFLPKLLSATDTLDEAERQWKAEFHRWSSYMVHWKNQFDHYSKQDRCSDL
Chain of Sodium-dependent dopamine transporter (Q01959 whole entry): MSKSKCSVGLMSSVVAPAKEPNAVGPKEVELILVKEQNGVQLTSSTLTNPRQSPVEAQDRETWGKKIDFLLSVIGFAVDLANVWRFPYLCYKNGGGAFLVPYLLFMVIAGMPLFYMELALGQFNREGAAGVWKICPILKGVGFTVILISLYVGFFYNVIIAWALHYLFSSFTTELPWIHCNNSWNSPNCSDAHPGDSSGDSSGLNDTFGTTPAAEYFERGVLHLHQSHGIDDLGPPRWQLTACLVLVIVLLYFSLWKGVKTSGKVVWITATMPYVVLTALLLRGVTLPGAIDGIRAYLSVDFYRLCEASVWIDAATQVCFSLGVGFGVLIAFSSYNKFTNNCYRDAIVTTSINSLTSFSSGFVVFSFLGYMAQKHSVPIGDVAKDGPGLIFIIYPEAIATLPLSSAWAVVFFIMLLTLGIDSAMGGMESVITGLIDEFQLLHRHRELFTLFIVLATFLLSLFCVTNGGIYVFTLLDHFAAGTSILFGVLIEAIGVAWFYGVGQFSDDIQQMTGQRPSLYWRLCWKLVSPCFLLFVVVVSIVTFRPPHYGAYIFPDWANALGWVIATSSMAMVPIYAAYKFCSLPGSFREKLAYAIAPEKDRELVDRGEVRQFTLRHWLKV
Chain of Mu-type opioid receptor (P35372 whole entry): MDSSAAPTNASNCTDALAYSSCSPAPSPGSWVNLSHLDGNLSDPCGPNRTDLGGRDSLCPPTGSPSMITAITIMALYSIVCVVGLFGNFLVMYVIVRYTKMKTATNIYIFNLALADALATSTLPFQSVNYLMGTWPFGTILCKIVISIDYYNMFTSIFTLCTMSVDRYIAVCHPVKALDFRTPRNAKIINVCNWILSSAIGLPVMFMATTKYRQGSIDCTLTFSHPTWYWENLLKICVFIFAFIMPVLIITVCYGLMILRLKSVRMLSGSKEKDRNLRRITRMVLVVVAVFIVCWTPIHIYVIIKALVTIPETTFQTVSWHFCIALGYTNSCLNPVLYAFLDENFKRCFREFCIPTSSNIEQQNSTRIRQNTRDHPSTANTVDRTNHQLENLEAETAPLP

A word on the AC50: it is the midpoint of the concentration-response curve, whichever way the signal moves. The low end stands for greater potency, the high end for weaker potency. Consider `CCOc1ccc(/C=C2\NCCc3cc(OCC)c(OCC)cc32)cc1OCC` [DROTAVERINE], for which the AC50 was 26.1 µM at Acetylcholinesterase; over 10 µM in test [1]; over 30 µM at Androgen receptor; over 30 µM in test [2]; over 30 µM in test [3]; over 30 µM in [4]. In addition, the half-maximal activity concentration (AC50) on Mu-type opioid receptor is over 10 µM; in [5] it was over 30 µM.

Regarding `CS(=O)(=O)Nc1cc2occ(NC=O)c(=O)c2cc1Oc1ccccc1` [IGURATIMOD], the AC50 (at Acetylcholinesterase; in test [1]; at Androgen receptor; in test [2]; in test [6]; in [3]) was over 30 µM in each case. Besides, the AC50 in test [4] is over 10 µM; on Melanocortin receptor 3, over 30 µM; at Mu-type opioid receptor it was over 30 µM; in [7] it was 9.8 µM; in [5], over 30 µM; in test [8], over 30 µM.

As for `CN1C(=O)N(C)C2C1N(C)C(=O)N2C` (configuration not stated) [MEBICAR], the AC50 (on Acetylcholinesterase; in test [9]; on Androgen receptor; in test [10]; in test [2]; in test [3]) was over 30 µM throughout. Further, the half-maximal activity concentration (AC50) (at Mu-type opioid receptor; in [7]; in [5]; in [8]) was over 30 µM each time.

On to `CN1CCC2=C(C1)c1ccccc1Cc1ccccc12` [SETIPTILINE], for which the AC50 was over 30 µM on Acetylcholinesterase; 0.231 µM in test [1]; over 30 µM on Androgen receptor; 0.154 µM in test [2]; over 30 µM in test [3]; over 30 µM in [4]. Besides, the values for the AC50 (at Mu-type opioid receptor; in [5]) were 12.8 µM and 24.1 µM, respectively.

For the molecule `COc1ccc(CCC(C)NCC(O)c2ccc(O)c([S+](C)[O-])c2)cc1` (configuration not stated) [SULFINALOL], the AC50 at Acetylcholinesterase was over 30 µM; in [1] it was 20.3 µM; on Androgen receptor it was over 30 µM; in test [2], 0.326 µM; in [3] it was over 30 µM; in test [4], over 30 µM. The AC50 (at Mu-type opioid receptor; in test [5]) was over 30 µM throughout.

With `O=C1CN=C(c2ccccc2)c2c(sc3c2CCCC3)N1` [BENTAZEPAM], the AC50 on Acetylcholinesterase is over 30 µM; in test [1], 12.4 µM; at Androgen receptor, 1.24 µM; in test [2], 1.55 µM; in test [3], over 30 µM; in test [4], over 30 µM. Besides, the AC50 (on Mu-type opioid receptor; in [5]) was over 30 µM each time.

`C[C@@H]1O[C@@H](OC[C@H]2O[C@@H](Oc3c(-c4ccc(OCCO)c(OCCO)c4)oc4cc(OCCO)cc(O)c4c3=O)[C@H](O)[C@@H](O)[C@@H]2O)[C@H](O)[C@H](O)[C@H]1O` [TROXERUTIN]: the AC50 (on Acetylcholinesterase; in test [1]; on Androgen receptor; in test [2]; in test [3]; in test [4]) was over 30 µM each time. The AC50 (at Mu-type opioid receptor; in [5]) was over 30 µM each time.

As to `C[C@@H]1C[C@H]2[C@@H]3C[C@H](F)C4=CC(=O)C=C[C@]4(C)[C@@]3(F)[C@@H](O)C[C@]2(C)[C@@]1(O)C(=O)COC(=O)C(C)(C)C` [FLUMETHASONE PIVALATE], the AC50 on Acetylcholinesterase was over 30 µM; in test [1] it was over 30 µM; at Androgen receptor, 1.4 µM; in test [2], over 30 µM; in test [3] it was over 30 µM; in test [4], over 30 µM. Moreover, the AC50 (at Mu-type opioid receptor; in [5]) was over 30 µM throughout.

Turning to `N/N=c1/cc2c(n[nH]1)CCN(C(=O)c1ccccc1)C2` [ENDRALAZINE], the AC50 (at Acetylcholinesterase; in test [9]; at Androgen receptor; in test [10]; in test [2]; in [6]) was over 30 µM throughout. Moreover, the AC50 (in test [3]; on Mu-type opioid receptor; in test [7]; in test [5]; in test [8]) was over 30 µM throughout.

Take `CC(C(=O)O)c1ccc2c(c1)Cc1cccnc1O2` (configuration not stated) [PRANOPROFEN]: the AC50 (on Acetylcholinesterase; in test [1]; on Androgen receptor; in test [2]; in test [3]; in [4]) was over 30 µM in each case. Besides, the AC50 (at Mu-type opioid receptor; in test [5]) was over 30 µM throughout.

Take `COc1cc2c(cc1OC)[C@H]1C[C@@H](OC(=O)[C@@H](N)C(C)C)[C@H](CC(C)C)CN1CC2` [VALBENAZINE]: the half-maximal activity concentration (AC50) at Acetylcholinesterase is over 30 µM; in test [1], over 30 µM; at Androgen receptor, over 30 µM; in [10] it was over 30 µM; in test [3], over 30 µM; at Mu-type opioid receptor it was 21.6 µM. The same molecule gave an AC50 in test [5] of over 30 µM.

As for `CN1CCN(C(c2ccccc2)c2ccccc2)CC1` [CYCLIZINE], the AC50 (on Acetylcholinesterase; in test [1]; on Androgen receptor; in test [2]; in test [3]; in test [4]) was over 30 µM in each case. Further, the AC50 was 24.9 µM on Mu-type opioid receptor and 1.98 µM in test [5].

Take `CC(C)Cc1ccc(C(C)C(=O)NO)cc1` (configuration not stated) [IBUPROXAM]: the AC50 (at Acetylcholinesterase; in test [1]; on Androgen receptor; in test [2]; in test [3]; in [4]) was over 30 µM in each case. In addition, the AC50 (on Mu-type opioid receptor; in test [5]) was over 30 µM in each case.
